Results as given in patent US6485742B1, “Process for producing coated preparation and its use” (BASF Aktiengesellschaft, priority 1999, dated 2002).

Experiment: Change in appearance (browning) of filled gelatin capsules on storage
Type: physicochemical
Conditions: 0.4 g in gelatin capsules, sealed glass bottle, 40° C. for 30 days
Procedure: Each (0.4 g) of calcium L-ascorbate and the coated calcium L-ascorbate (70% L-ascorbate content) produced in Example 4 was filled in gelatin capsules (manufactured by Warner-Lambert Company, body volume 0.68 ml) and the capsules were placed in a transparent glass bottle. The bottle was sealed and stored in an incubator at 40° C. for 30 days to observe the change in appearances.

calcium L-ascorbate
Browning of filled gelatin capsules (change in appearance): severe browning
